Here are results for two molecules from PMC11811597, “Phenomics‐Based Discovery of Novel Orthosteric Choline Kinase Inhibitors” (Angewandte Chemie (International Ed. in English), 2025).

Assay [1] deals with CHKA (Homo sapiens, UniProt P35790). The experiment in a line: PK/LDH coupled choline kinase enzyme assay. The format is biochemical. Details: host or cells: E. coli BL21(DE3). The note with it: concentration-dependent. How it is done:
carried out using REFMAC[9] and COOT,[10] and concluded when no improvements resulted for Rfree and Rwork values, and when density maps indicated no further changes were justified.
Choline Coupled Enzymatic Assay
CHKA (120 ng, 24 µg/ml) was arrayed (5 µL) into a 96 well semi-skirted real time PCR plate. 4-fold dilution series and vehicle controls (0.5% DMSO) were prepared in a separate plate. A further DMSO control was included for use with a no protein well control. The dilutions (17 µL) were mixed with reaction buffer (136 µL, see Table below) and arrayed (45 µL) onto the CHKA-containing PCR plate.
After mixing, bubbles were removed by centrifugation (1000 × g, 1 min) and absorbance read at 340 nm on a PheraSTAR FSX (BMG Labtech), reading every minute for 10 min. Non-linear curve fitting and graph generation was performed using Graphpad Prism 8 software.
Components of the assay reaction buffer.
Component Stock concentration Volume per buffer Final reaction […]
Experiments were performed as described earlier with few modifications. In short, 3 replicates of intact HepG2 cells were treated with 30 µM UNC0638, UNC373 or corresponding volume of DMSO in medium-free experimental buffer for 60 min at 37 °C with end-over-end rotation. For lysates: Washed K562 cells were resuspended in medium-free experimental buffer and lysed by three freeze-thaw cycles. […]

The test system of assay [2] is primary human cell‐based tissue and disease models. Briefly: BioMAP Diversity PLUS panel. Conditions: for clustering of overall BioMAP responses across all biomarkers: 12 systems, Pearson's correlation >0.7; for IgG secretion, BioMAP PBMC panel: BioMAP B cell profiling. The text has this:
Having confirmed that UNC0638 and UNC0737 are potent bona fide CHKA inhibitors, we next turned our attention to further investigate the role of CHKA in cellular signalling. While CHKA has been studied extensively in the context of malignant disease, there has been a growing acknowledgment of its relevance in immune metabolism.[9, 10] […] We profiled UNC0638 and UNC0737 alongside the orthogonal CHKA inhibitors V‐11‐0711 and ARIAD against the BioMAP Diversity PLUS panel (Figures S7).[24] This set comprises 148 distinct biomarkers across 12 systems, including panels for systemic immune responses. […] The decrease in IgG secretion was accompanied by a reduction in stimulation‐induced B cell maturation into CD27^+IgD^− memory CD19^+ B cells (Figure 4D). […]
consecutive concentrations change in the same direction relative to vehicle controls, are outside of the significance envelope, and have at least one concentration with an effect size > 20% (|log10ratio| > 0.1). Biomarker key activities are described as modulated if these activities increase in some systems, but decrease in others. Cytotoxicity is indicated on the profile plot by a thin black arrow above the x- […]
Cytotoxicity and antiproliferative arrows only require one concentration to meet the indicated threshold for profile annotation. […]

Molecules are shown by their SMILES.

Sequence of CHKA (P35790 75-457 limits assumed): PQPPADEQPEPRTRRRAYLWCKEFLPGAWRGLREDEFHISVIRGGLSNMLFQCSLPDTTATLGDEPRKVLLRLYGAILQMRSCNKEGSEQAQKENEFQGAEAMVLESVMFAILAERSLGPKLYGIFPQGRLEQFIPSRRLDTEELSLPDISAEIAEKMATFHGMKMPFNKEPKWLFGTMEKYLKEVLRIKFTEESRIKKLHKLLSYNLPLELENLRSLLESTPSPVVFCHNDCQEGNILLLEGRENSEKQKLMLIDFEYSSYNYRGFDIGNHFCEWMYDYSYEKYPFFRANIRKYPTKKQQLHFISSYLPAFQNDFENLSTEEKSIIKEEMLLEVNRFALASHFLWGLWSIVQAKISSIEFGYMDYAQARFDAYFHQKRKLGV

As for `COc1cc2c(NC3CCN(C(C)C)CC3)nc(C3CCCCC3)nc2cc1OCCCN1CCCC1` [UNC0638], the CHKA catalytic activity entry in assay [1] is given as “suppressed CHKA catalytic activity”. Also, in assay [2], the “clustering of overall BioMAP responses across all biomarkers” value is “clustered together with the known CHKA inhibitors” and the “IgG secretion, BioMAP PBMC panel” value is listed as “significant effects on IgG secretion”.

For the molecule `COc1cc2c(N(C)C3CCN(C(C)C)CC3)nc(C3CCCCC3)nc2cc1OCCCN1CCCC1` [UNC0737], the CHKA catalytic activity result in assay [1] is “suppressed CHKA catalytic activity”. For the same molecule, in assay [2], the “clustering of overall BioMAP responses across all biomarkers” value is recorded as “clustered together with the known CHKA inhibitors” and the “IgG secretion, BioMAP PBMC panel” value is reported as “significant effects on IgG secretion”.
